Experimental data as given in US20170239212A1, “[…] AND USE THEREOF AS ANTIVIRAL AGENTS” (priority 2014, published 2017).

What was measured:
[1] = system: K-562 human myelocytic leukemia cell line; assay: Proliferation of K-562 cells; type: cell-based; conditions: maximally effective concentration, 72 hours, vs DMSO control
Method: K562 cells were counted after 3 day treatment with different concentrations of PMA (0.1, 1, 10, 100, 1000 nM), bryostatin 1 (0.1, 1, 10, 100, 1000 nM), the bryologues MERLE 21, 22, or 23 (1, 10, 100, 1000, 5000 nM) or DMSO as control. The number of cells is presented as % of the DMSO-treated control. Data represent the means±SEM of three independent experiments.
K-562 cells, from the Biological Testing Branch, National Cancer Institute, NIH (Frederick, Md.), were grown under usual conditions in RPMI-1640, supplemented with 10% fetal bovine serum. 72 hours after treatment with different drugs or DMSO the cell number was determined using a Beckman particle counter (Beckman Coulter Inc., Fullerton, Calif.).

[2] = system: LNCaP human prostate cancer cells; assay: Proliferation and morphology of LNCaP cells (Incucyte confluency imaging); type: cell-based; conditions: for Persistence of early morphological change (cell flattening) in LNCaP cells: Incucyte images, 0-9 hrs after treatment
Method: FIGS. 12A-12D show the effect of different compounds on the proliferation and apoptosis of LNCaP cells. […] Time-elapsed images were taken with an Incucyte imaging system every hour for 4 days. The proliferation of LNCaP cells is presented as increase in confluency (read by the instrument) at 80 hrs. Data represent the means±SEM of three independent experiments. […] Apoptosis was measured 2 days after treatment by flow cytometry using 7-AAD and Yo-Pro-1 as described in Materials and Methods. Data represent the means±SEM of three independent experiments.
FIGS. 13A and 13B show the proliferation and morphology of LNCaP cells detected by Incucyte. LNCaP cells were treated with DMSO as control, 300 nM PMA, 1000 nM bryostatin 1 or the bryologue MERLE 21, or with 300 nM PMA in combination with 1000 nM bryostatin 1 or the bryologue MERLE 21. Time-elapsed images were taken by the Incucyte imaging system every hour. […] The arrow indicates the time of treatment. Data are representative of three independent experiments.
The extent of confluency of LNCaP cells (from ATCC, Manassas, Va.) and the morphological changes after treatment were followed in real time using Incucyte (Essen Instruments, Ann Arbor, Mich.). Images of LNCaP cells plated into 24 well plates were taken every 1 hour by the instrument before and after treatment for a total of 4 days. The confluency of the cells was calculated by the instrument's program. The proliferation of LNCaP cells was expressed as the difference in cell confluency before and after treatment.

[3] = system: human osteosarcoma (HOS) cells; assay: HOS cell viability (CellTiter-Glo, cellular ATP); type: cell-based; set-up: unit not given here; conditions: knock down of cellular ATP
Method: (§1) Specifically, EC50 and CC50 values were determined in parallel using 10 concentrations of compound from 3 fold serial dilutions starting a 5 uM as the highest concentration. Cells and media were added to compounds with a final concentration of DMSO of 1% and incubated at 37° C., 5% CO2 for 24, 48 and 72 hours. EC50 was measured by induced luciferase activity detected by the use of the Steady-Glo® Luciferase reagent (PROMEGA) with an EnVision (Perkin-Elmer) plate reader. CC50 was determined by the dose dependent knock down of cellular ATP detected by the use of CellTiter-Glo® Luminescent Cell Viability reagent (PROMEGA) with an EnVision (Perkin-Elmer) plate reader.

PKC delta = assay: Phosphorylation of PKC delta at Y311 in LNCaP cells (western blot); type: cell-based, human; conditions: 2, 5 or 8 hrs treatment
Method: (§2) FIGS. 14A-14C show the induction of cFos and phosphorylation of PKC6 at Y311 in LNCaP cells. […] The proteins from the lysates were separated by 10% SDS-PAGE, electroblotted to nitrocellulose membranes and probed with anti-cFos primary and anti-rabbit secondary antibodies, followed by ECL visualization. Data are representative of four independent experiments. […] The cFos signal was normalized to the 3-actin signal to correct for loading and the response induced by 100 nM PMA at 2 hrs was taken as 100%. Data represent the means±SEM of four independent experiments. […] Data represent the means±SEM of three independent experiments.
(§3) LNCaP cells treated for 48 hours with the different drugs or with DMSO as control were washed and re-suspended in phosphate buffered saline. Yo-Pro-1 (Invitrogen, Carlsbad, Calif.) was added to a final concentration of 1 μM and the cells were incubated for 20 min at 4° C. in the dark. 7-Aminoactinomycin D (7-AAD) (Invitrogen, Carlsbad, Calif.) was then added at a 5 μg/mL final concentration 10 minutes before analysis by flow cytometry using the FACSCalibur system (Becton Dickinson, Mountain View, Calif.). Data were analyzed with FlowJo 7 (Tree Star Inc., Ashland, Oreg.). The Yo-Pro-1 positive cells were considered apoptotic and were expressed as % of total cells. […]

[4] = system: HIV long terminal repeat (LTR) promoter; assay: HOS LTR stimulation assay (luciferase reporter); type: cell-based
Method: In the assay, non T cell derived human osteosarcoma (HOS) cells are transfected with a luciferase reporter under control of an HIV long terminal repeat (LTR) promoter. Compounds that stimulate the HIV LTR promoter will produce luciferase in a dose dependent manner.
as §1
The error bars represent the average and the standard error of the mean of at least three independent experiments.

cFos = assay: Induction of cFos in LNCaP cells (western blot); type: cell-based, human; conditions: 2, 5 or 8 hrs treatment
Method: as §2, §3

[5] = target: HIV long terminal repeat (LTR) promoter; assay: in vitro; type: cell-based; conditions: Jurkat cells
Method: as §1, with “The compounds were also tested in the T cell derived Jurkat cell line transfected with a luciferase reporter under control of an HIV long terminal repeat (LTR) promoter. Specifically,” for “Specifically,”

Jurkat cell line = assay: in vitro; type: cell-based; conditions: Jurkat cells, knock down of cellular ATP
Method: as §1, with “The compounds were also tested in the T cell derived Jurkat cell line transfected with a luciferase reporter under control of an HIV long terminal repeat (LTR) promoter. Specifically,” for “Specifically,”

SMILES | Maximal inhibition of K-562 cell growth [1] | Block of PMA inhibition of LNCaP cell growth ([2]; 300 nM PMA combined with 1000 nM compound, 80 hrs) | Persistence of early morphological change (cell flattening) in LNCaP cells [2] | Effect on LNCaP cell growth ([2]; compound alone, confluency at 80 hrs) | CCEC50 [3] | Phosphorylation of PKC delta at Y311 in LNCaP cells (PKC delta) | Max signal (% of control) ([4]; HOS cells, LTR-luciferase signal) | Conc (uM) at Max ([4]; HOS cells, concentration at maximal LTR-luciferase signal) | EC50 ([4]; Human immunodeficiency virus 1, HOS) | Time course of cFos induction in LNCaP cells (cFos) | EC50 ([5]; LTR-luciferase, incubated 24, 48 and 72 hours (time of the listed values not stated)) | Selectivity (CC50:EC50) ([5]; ratio of the CC50 to the EC50) | CC50 (Jurkat cell line)
CCC/C=C/C=C/C(=O)O[C@H]1/C(=C/C(=O)OC)C[C@H]2C[C@H]([C@@H](C)O)OC(=O)C[C@H](O)C[C@@H]3C[C@H](OC(C)=O)C(C)(C)[C@](O)(C[C@@H]4C/C(=C/C(=O)OC)C[C@H](/C=C/C(C)(C)[C@]1(O)O2)O4)O3 [Bryostatin 1] | 31.8±9.2% | blocked the inhibition of LNCaP cell growth by PMA | had reversed by 6 hrs after treatment | induced a low level of inhibition of cell growth | >5 | only very weak phosphorylation | 157 % of control | 2.51 µM | 2 nM | largely lost by 5 hrs | – | – | –
CCCCCCCCCCCCCC(=O)O[C@@H]1[C@@H](C)[C@@]2(O)[C@@H](C=C(CO)C[C@]3(O)C(=O)C(C)=C[C@@H]23)[C@@H]2C(C)(C)[C@]12OC(C)=O [PMA, phorbol 12-myristate 13-acetate] | – | – | still evident at 6 hrs but reversing by 9 hrs | – | – | rapid phosphorylation | – | – | – | persisted for 5 hrs, with weak induction still evident at 8 hrs | 0.1 nM | 1 | 0.1 nM
